Source: ChEMBL document CHEMBL4507328, “Data for DCP probe BAY-390” (2021)

Legend:
[1] = target: Transient receptor potential cation channel subfamily V member 4 (Homo sapiens, UniProt Q9HBA0); experiment: TRP selectivity screen (TRPV4)
[2] = target: T1, 5-hydroxytryptamine receptor 1A (Homo sapiens) (UniProt P08908); details: Compound concentration 10.0 uM
T1 sequence (whole entry): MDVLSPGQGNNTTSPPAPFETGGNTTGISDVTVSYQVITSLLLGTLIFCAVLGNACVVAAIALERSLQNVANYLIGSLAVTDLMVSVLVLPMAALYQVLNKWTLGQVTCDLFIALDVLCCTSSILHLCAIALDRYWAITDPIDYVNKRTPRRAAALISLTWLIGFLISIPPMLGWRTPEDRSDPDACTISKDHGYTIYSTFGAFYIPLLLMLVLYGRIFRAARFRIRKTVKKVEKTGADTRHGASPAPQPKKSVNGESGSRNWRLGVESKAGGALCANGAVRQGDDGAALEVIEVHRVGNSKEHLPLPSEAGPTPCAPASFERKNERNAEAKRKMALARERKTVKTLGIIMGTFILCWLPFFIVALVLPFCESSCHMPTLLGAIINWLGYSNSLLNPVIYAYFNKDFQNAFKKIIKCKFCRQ

[3] = target: T2, 5-hydroxytryptamine receptor 2C (Homo sapiens) (UniProt P28335); details: Compound concentration 10.0 uM
T2 sequence (whole entry): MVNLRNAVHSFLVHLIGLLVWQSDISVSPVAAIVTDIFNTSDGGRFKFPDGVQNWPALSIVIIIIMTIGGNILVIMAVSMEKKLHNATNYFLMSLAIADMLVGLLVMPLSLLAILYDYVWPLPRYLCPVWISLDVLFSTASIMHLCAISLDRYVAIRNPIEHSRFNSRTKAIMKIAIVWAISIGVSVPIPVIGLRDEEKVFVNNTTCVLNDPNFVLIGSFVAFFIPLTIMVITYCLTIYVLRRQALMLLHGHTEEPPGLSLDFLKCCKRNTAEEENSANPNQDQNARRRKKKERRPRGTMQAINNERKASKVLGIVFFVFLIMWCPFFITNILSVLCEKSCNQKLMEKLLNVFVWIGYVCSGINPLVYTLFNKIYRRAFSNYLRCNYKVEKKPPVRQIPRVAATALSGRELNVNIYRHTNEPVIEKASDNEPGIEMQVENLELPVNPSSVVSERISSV

[4] = target: 5-hydroxytryptamine receptor 3A (Homo sapiens) (UniProt P46098); details: Compound concentration 10.0 uM
[5] = target: D(3) dopamine receptor (Homo sapiens) (UniProt P35462); details: Compound concentration 10.0 uM
[6] = target: D(4) dopamine receptor (Homo sapiens) (UniProt P21917); details: Compound concentration 10.0 uM
[7] = target: Mu-type opioid receptor (Homo sapiens) (UniProt P35372); details: Compound concentration 10.0 uM
[8] = target: Kappa-type opioid receptor (Homo sapiens) (UniProt P41145); details: Compound concentration 10.0 uM
[9] = target: Histamine H1 receptor (Homo sapiens) (UniProt P35367); details: Compound concentration 10.0 uM
Histamine H2 receptor = Histamine H2 receptor (Homo sapiens, UniProt P25021); details: Compound concentration 10.0 uM
[10] = target: Alpha-1B adrenergic receptor (Homo sapiens) (UniProt P35368); details: Compound concentration 10.0 uM
[11] = target: T3, Alpha-2C adrenergic receptor (Homo sapiens) (UniProt P18825); details: Compound concentration 10.0 uM
T3 sequence (whole entry): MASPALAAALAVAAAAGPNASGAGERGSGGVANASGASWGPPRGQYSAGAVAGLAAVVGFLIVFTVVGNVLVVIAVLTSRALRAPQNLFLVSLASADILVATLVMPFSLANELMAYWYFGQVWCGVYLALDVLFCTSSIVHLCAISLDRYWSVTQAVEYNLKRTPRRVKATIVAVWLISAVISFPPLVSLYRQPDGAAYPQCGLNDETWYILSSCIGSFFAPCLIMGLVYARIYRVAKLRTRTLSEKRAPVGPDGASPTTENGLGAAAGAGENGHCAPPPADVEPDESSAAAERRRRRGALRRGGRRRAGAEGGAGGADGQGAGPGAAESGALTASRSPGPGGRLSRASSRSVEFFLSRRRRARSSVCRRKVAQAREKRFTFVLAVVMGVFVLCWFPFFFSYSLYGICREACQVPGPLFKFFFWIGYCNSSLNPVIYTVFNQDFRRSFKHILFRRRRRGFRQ

[12] = target: Beta-1 adrenergic receptor (Homo sapiens) (UniProt P08588); details: Compound concentration 10.0 uM
[13] = target: Beta-2 adrenergic receptor (Homo sapiens) (UniProt P07550); details: Compound concentration 10.0 uM
[14] = target: T4, Muscarinic acetylcholine receptor M2 (Homo sapiens) (UniProt P08172); details: Compound concentration 10.0 uM
T4 sequence (whole entry): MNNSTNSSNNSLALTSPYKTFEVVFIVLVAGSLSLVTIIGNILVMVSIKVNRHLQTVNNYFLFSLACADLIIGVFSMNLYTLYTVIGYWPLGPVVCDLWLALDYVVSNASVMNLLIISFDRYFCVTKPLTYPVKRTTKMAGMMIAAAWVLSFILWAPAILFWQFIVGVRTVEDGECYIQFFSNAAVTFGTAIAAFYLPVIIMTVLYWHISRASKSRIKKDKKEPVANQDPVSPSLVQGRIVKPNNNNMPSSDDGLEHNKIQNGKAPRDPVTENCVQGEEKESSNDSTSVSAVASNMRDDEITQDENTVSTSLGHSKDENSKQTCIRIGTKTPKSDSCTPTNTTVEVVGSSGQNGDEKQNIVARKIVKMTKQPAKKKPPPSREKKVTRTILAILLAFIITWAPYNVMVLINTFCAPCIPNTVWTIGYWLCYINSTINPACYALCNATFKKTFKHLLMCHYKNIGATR

[15] = target: Muscarinic acetylcholine receptor M5 (Homo sapiens) (UniProt P08912); details: Compound concentration 10.0 uM
[16] = target: Beta-3 adrenergic receptor (Homo sapiens) (UniProt P13945); details: Compound concentration 10.0 uM
[17] = target: GABA-A receptor; anion channel (Rattus norvegicus) (UniProt O09028+P15431+P18506+P18508+P19969+P20236+P23574+P23576+P28471+P28473+P30191+P62813+P63079+P63138+Q91ZM7+Q9ES14); details: Compound concentration 10.0 uM
Rattus norvegicus = species on record: Rattus norvegicus; details: Compound concentration 10.0 uM
[18] = target: Alpha-1D adrenergic receptor (Homo sapiens) (UniProt P25100); details: Compound concentration 10.0 uM
[19] = target: Sigma intracellular receptor 2 (Homo sapiens) (UniProt Q5BJF2); details: Compound concentration 10.0 uM
Sigma intracellular receptor 2 (Homo sapiens), sequence (Q5BJF2 whole entry): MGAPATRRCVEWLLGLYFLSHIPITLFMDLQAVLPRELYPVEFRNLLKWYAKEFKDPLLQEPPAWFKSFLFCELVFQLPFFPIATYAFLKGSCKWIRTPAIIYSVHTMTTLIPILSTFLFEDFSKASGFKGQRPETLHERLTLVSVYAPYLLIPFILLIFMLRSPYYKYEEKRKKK

D(4) dopamine receptor (Homo sapiens), sequence (P21917 whole entry): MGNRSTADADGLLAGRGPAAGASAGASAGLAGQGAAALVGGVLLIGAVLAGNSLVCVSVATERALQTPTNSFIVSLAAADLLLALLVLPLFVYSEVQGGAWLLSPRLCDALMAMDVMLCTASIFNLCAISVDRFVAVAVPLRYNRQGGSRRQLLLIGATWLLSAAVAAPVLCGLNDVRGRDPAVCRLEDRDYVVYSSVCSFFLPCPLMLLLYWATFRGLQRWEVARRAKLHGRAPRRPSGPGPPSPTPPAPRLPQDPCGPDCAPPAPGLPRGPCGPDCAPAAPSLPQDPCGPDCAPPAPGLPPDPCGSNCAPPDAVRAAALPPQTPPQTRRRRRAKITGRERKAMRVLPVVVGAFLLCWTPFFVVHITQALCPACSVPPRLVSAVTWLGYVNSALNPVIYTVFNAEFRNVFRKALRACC
5-hydroxytryptamine receptor 3A (Homo sapiens), sequence (P46098 whole entry): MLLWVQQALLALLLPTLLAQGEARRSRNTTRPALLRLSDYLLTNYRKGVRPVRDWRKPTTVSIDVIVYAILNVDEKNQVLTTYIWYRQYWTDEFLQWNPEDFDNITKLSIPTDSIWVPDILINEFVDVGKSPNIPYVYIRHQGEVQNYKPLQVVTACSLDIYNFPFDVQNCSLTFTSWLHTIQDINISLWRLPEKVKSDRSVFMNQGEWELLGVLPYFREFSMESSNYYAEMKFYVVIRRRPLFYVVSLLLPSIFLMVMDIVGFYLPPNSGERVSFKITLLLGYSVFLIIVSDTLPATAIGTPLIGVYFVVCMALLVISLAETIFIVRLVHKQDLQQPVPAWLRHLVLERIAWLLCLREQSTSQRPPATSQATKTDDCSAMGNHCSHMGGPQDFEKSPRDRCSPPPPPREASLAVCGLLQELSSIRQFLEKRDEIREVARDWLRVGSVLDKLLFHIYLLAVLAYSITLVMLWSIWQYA
D(3) dopamine receptor (Homo sapiens), sequence (P35462 whole entry): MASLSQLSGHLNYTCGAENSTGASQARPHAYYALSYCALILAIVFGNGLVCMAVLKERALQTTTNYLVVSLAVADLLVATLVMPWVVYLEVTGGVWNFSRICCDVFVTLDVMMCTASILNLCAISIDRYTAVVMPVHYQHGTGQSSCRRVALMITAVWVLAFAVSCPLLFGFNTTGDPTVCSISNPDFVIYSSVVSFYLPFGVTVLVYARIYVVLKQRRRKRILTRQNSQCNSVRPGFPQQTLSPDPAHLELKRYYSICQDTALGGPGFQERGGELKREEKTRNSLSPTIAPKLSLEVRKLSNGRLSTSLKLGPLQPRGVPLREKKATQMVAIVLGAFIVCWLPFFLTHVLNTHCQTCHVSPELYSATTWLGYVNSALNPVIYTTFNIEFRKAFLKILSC
Beta-3 adrenergic receptor (Homo sapiens), sequence (P13945 whole entry, looked up): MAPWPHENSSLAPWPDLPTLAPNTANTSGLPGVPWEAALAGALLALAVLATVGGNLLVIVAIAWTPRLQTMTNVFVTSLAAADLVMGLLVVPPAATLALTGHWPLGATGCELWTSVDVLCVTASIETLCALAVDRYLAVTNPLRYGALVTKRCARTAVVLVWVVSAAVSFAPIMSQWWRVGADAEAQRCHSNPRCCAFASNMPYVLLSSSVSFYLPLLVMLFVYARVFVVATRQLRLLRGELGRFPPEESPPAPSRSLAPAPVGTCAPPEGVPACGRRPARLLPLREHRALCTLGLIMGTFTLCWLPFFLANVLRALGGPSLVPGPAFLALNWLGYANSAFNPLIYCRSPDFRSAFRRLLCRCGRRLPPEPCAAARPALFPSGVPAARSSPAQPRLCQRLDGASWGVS
Histamine H1 receptor (Homo sapiens), sequence (P35367 whole entry): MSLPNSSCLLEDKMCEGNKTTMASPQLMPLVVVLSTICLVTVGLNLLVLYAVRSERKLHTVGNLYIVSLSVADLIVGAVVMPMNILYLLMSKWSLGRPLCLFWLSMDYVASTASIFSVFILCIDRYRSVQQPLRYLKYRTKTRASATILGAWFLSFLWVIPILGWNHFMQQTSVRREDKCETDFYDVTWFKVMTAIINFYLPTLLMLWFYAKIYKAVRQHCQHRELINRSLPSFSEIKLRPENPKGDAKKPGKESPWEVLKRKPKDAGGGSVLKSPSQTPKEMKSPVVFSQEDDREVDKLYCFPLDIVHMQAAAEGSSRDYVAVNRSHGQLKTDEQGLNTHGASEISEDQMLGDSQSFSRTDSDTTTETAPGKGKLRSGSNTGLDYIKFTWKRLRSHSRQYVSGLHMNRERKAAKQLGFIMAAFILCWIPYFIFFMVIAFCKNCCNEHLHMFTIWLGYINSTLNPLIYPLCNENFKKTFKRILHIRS
Alpha-1D adrenergic receptor (Homo sapiens), sequence (P25100 whole entry): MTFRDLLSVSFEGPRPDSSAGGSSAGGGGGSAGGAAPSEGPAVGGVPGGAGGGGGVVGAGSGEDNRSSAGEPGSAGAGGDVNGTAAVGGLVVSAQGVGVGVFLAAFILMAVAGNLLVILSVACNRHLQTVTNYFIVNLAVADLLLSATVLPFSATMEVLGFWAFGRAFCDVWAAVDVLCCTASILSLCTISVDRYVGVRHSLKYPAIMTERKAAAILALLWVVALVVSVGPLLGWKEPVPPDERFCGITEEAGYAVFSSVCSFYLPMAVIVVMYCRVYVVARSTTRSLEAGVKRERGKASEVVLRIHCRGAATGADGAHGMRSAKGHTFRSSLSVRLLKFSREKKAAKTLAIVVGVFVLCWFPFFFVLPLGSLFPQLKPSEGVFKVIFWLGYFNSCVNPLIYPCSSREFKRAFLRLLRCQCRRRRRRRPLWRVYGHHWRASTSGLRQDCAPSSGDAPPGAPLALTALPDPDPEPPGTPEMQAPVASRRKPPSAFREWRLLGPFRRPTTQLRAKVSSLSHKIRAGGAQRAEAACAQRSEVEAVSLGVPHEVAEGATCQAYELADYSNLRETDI
Muscarinic acetylcholine receptor M5 (Homo sapiens), sequence (P08912 whole entry): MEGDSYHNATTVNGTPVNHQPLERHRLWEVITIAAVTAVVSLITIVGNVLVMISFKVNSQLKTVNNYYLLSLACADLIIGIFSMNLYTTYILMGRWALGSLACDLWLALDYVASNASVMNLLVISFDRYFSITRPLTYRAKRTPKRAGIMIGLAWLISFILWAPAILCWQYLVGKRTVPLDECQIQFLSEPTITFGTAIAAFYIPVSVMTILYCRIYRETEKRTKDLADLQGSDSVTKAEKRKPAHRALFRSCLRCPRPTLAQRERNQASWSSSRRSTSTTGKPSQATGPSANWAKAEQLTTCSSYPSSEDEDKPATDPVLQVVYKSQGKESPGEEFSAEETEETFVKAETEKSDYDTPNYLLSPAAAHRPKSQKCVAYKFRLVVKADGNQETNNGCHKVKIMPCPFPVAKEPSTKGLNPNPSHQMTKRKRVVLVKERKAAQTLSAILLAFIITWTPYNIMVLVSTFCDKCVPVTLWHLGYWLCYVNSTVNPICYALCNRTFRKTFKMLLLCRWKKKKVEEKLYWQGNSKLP
Mu-type opioid receptor (Homo sapiens), sequence (P35372 whole entry): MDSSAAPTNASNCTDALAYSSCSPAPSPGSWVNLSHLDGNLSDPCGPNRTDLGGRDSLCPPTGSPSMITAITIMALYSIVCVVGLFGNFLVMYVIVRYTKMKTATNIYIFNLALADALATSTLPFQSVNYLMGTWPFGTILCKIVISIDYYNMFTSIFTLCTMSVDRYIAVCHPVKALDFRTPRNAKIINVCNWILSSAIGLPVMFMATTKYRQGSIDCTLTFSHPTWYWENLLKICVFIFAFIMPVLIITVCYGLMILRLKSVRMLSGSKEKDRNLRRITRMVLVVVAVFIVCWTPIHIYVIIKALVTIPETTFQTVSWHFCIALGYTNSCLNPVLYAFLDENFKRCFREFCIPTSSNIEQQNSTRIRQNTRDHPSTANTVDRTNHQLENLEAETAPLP
Alpha-1B adrenergic receptor (Homo sapiens), sequence (P35368 whole entry): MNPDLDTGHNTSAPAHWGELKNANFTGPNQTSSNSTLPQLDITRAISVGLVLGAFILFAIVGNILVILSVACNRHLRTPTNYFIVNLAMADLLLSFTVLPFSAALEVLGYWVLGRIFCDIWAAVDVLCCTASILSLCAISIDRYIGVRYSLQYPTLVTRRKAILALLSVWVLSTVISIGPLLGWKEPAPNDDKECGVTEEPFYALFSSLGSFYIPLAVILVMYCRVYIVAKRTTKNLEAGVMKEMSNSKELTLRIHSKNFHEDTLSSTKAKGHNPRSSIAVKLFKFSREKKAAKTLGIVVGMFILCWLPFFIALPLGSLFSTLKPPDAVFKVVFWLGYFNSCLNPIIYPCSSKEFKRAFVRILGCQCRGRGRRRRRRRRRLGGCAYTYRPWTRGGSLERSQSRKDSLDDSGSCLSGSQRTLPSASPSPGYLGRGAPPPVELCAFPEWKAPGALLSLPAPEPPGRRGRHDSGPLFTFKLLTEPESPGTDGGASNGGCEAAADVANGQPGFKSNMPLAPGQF
Beta-2 adrenergic receptor (Homo sapiens), sequence (P07550 whole entry, looked up): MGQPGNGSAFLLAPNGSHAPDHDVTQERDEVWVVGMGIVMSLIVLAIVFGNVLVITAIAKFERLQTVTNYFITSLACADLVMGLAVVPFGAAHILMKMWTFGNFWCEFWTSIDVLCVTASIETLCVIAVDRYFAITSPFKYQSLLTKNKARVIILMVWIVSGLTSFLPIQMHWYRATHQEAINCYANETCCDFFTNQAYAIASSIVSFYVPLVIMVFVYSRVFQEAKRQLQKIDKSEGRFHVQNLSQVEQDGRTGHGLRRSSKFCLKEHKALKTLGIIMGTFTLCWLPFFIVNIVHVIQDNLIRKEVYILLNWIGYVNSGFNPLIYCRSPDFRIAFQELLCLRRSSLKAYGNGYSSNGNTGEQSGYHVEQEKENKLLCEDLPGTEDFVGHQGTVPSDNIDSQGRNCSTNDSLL

| SMILES | IC50 [1] | inhibition [2] [%] | inhibition [3] [%] | inhibition [4] [%] | inhibition [5] [%] | inhibition [6] [%] | inhibition [7] [%] | inhibition [8] [%] | inhibition [9] [%] | inhibition (Histamine H2 receptor) [%] | inhibition [10] [%] | inhibition [11] [%] | inhibition [12] [%] | inhibition [13] [%] | inhibition [14] [%] | inhibition [15] [%] | inhibition [16] [%] | inhibition [17] [%] | inhibition (Rattus norvegicus) [%] | inhibition [18] [%] | also measured |
| --- | --- | --- | --- | --- | --- | --- | --- | --- | --- | --- | --- | --- | --- | --- | --- | --- | --- | --- | --- | --- | --- |
| COc1cc(N[C@@H]2CCCC[C@]2(O)C(F)(F)F)ccc1F [BAY-9897] | > 25 µM (not active) | 6.99 | -0.76 | 11.6 | -0.75 | 6.32 | 10.3 | 10.5 | -8.03 | 89 | 0.41 | -3.92 | -0.24 | 22.2 | 3.81 | -5.5 | 34.2 | 5.42 | -1.71 | -4.64 | inhibition [19]: 27.8% |
| O[C@]1(C(F)(F)F)CCCC[C@H]1Nc1ccc(F)cc1 [BAY-390] | > 25 µM (not active) | -1.95 | 23.4 | 39 | -6.61 | -4.08 | 6.05 | 9.94 | 25.7 | -1.07 | 8.7 | 4.19 | 20.2 | 7.94 | -2.71 | 10.4 | 31 | 4.57 | 2.79 | -2.73 | inhibition [19]: 8.95% |
